Our source for the Drug uptake values is ChEMBL document CHEMBL1148029, “Synthesis and radiopharmacological characterization of 2beta-carbo-2'-[18F]fluoroethoxy-3beta-(4-bromo-phenyl)tropane ([18F]MCL-322) as a PET radiotracer for imaging the dopamine transporter (DAT)” (Bioorg Med Chem, 2007).

For data set [1], the system named is Cerebellum. Nature of the data set: Biodistribution in Wistar rat cerebellum at 300 uCi, iv after 60 mins. It is filed as ADME, organism-based. Conditions: in vivo, 1 h.
Data set [2] in a line: Biodistribution in Wistar rat hair and skin at 300 uCi, iv after 240 mins. The data set is classed as ADME, organism-based. The following applies: in vivo, 4 h.
Another data set concerns Testes. Nature of the data set: Biodistribution in Wistar rat testes at 300 uCi, iv after 20 mins. It is filed as ADME, organism-based, Testis. Conditions: in vivo.
A further data set relates to Hippocampus. Nature of the data set: Biodistribution in Wistar rat hippocampus at 300 uCi, iv after 60 mins. Conditions: in vivo, 1 h. The data set is classed as ADME, organism-based.
Data set [3] can be described thus: Biodistribution in Wistar rat rest of brain at 300 uCi, iv after 20 mins. The following applies: in vivo. The data set is classed as ADME, organism-based.
Data set [4] concerns Cerebellum. Nature of the data set: Biodistribution in Wistar rat cerebellum at 300 uCi, iv after 240 mins. Conditions: in vivo, 4 h. It is filed as ADME, organism-based.
The next data set has as its system Blood. Nature of the data set: Biodistribution in Wistar rat blood at 300 uCi, iv after 20 mins. The data set is classed as ADME, organism-based. The following applies: in vivo.
In a further data set the test system is Striatum. Nature of the data set: Biodistribution in Wistar rat striatum at 300 uCi, iv after 60 mins in presence of nisoxetine. The data set is classed as ADME, organism-based. Conditions: in vivo, 1 h.
A further data set deals with Kidney. Nature of the data set: Biodistribution in Wistar rat kidney at 300 uCi, iv after 120 mins. The data set is classed as ADME, organism-based. The following applies: in vivo, 2 h.

For the molecule `CN1C2CCC1C(C(=O)OCC[18F])C(c1ccc(Br)cc1)C2` (centres undefined), the Drug uptake in the data set on Cerebellum [1] was 0.56 % ID/g; in [2] it was 0.08 % ID/g; with Testes it was 0.45 % ID/g; with Hippocampus it was 1.12 % ID/g; in [3] it was 2.06 % ID/g; in the data set on Cerebellum [4], 0.09 % ID/g. Besides, the Drug uptake with Blood stood at 0.07 % ID/g; in the data set with Striatum, 4.18 % ID/g; in the data set with Kidney, 1.84 % ID/g.
